Reference: patent US10588935B2, “FC receptor (FcRn) binding peptides and uses thereof” (THE BRIGHAM AND WOMEN'S HOSPITAL, INC., priority 2013, dated 2020)
Bridge positions count the residues as written; N and C are the ends. Peptide text beside a SMILES is read from it.

Each compound was assayed against T1, soluble human FcRn (Homo sapiens, UniProt P55899) (assay: SPR (Biacore) affinity of peptides for immobilized soluble human FcRn). Settings: Table 1; pH 6; shFcRn immobilized on the sensor chip; steady state fit; read-out: Kd, pH 6** Biacore.
T1 construct: Soluble human FcRn was expressed and purified by Biogen-Idec as previously described (29)
Type: binding
Experimental: SPR analyses were conducted using a Biacore 3000 or T100 instrument. Research-grade CM5 sensor chips and all coupling reagents for immobilization were purchased from Biacore. All proteins were cross-linked to the dextran surface of a CM5 sensor chip by standard amine coupling chemistry as recommended by Biacore. […] Binding experiments were performed at pH 6.0 or 7.4 using 50 mM phosphate, 100 mM sodium chloride and 0.01% surfactant P20. […] Bound albumin protein was then allowed to dissociate from the chip for 5 minutes with running buffer. Any remaining albumin was removed from the chip with a 60 second injection (2 cycles) of pH 8.0 Tris-HCl regeneration buffer (1 M Tris pH 8.0) at 25 μL/min flow rate. The binding responses recorded near the end of the association phase were plotted as a function of concentration. Equilibrium dissociation constants (KD), were derived from sensorgrams using the 1:1 binding model of BIAevaluation software 4.1.

T1 sequence (P55899 24-297 limits assumed): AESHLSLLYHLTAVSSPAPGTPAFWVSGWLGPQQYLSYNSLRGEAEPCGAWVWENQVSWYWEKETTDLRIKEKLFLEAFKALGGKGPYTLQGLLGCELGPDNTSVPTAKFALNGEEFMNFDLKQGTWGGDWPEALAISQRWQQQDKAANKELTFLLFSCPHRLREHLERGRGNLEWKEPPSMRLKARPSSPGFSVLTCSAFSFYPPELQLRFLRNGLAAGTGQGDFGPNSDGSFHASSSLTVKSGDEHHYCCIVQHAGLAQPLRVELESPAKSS
T1 sequence (P61769 21-119 partner): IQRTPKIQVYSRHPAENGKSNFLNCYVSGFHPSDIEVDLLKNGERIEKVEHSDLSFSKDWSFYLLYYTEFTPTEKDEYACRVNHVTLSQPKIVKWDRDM

First: CC(=O)N[C@@H](CCCNC(=N)N)C(=O)N[C@@H](Cc1ccc(O)cc1)C(=O)N[C@@H](Cc1ccccc1)C(=O)N[C@@H](C)C(=O)N[C@H](C(=O)N[C@@H](CCCCN)C(=O)N[C@@H](Cc1c[nH]c2ccccc12)C(=O)N[C@@H](CCCCN)C(=O)N[C@@H](Cc1c[nH]cn1)C(=O)NCC(=O)N[C@@H](Cc1c[nH]c2ccccc12)C(=O)N[C@@H](C)C(=O)N[C@@H](CCC(=O)O)C(=O)N[C@@H](CCC(=O)O)C(=O)N[C@H](C(N)=O)C(C)C)[C@@H](C)O [SYN1558] (Ac-RYFATKWKHGWAEEV-NH2)
Second: CC(=O)N[C@@H](C)C(=O)NCC(=O)N[C@@H](CCCNC(=N)N)C(=O)N[C@@H](Cc1ccc(O)cc1)C(=O)N[C@@H](Cc1ccccc1)C(=O)N[C@H]1CSSC[C@@H](C(=O)N[C@@H](CCC(=O)O)C(=O)N[C@@H](CCC(=O)O)C(=O)N[C@H](C(=O)NCC(=O)N[C@H](C(=O)NCC(=O)NCC(N)=O)[C@@H](C)O)C(C)C)NC(=O)[C@H](Cc2c[nH]c3ccccc23)NC(=O)CNC(=O)[C@H](Cc2c[nH]cn2)NC(=O)[C@H](CCCCN)NC(=O)[C@H](Cc2c[nH]c3ccccc23)NC(=O)[C@H](CCCCN)NC(=O)[C@H]([C@@H](C)O)NC1=O [SYN1708]
The Kd of the first is higher: over 100000 nM for the first, 570 nM for the second. The second binds more tightly here.

Same assay, conditions: Table 2

Going from `CSCC[C@@H]1NC(=O)[C@H](CCC(=O)O)NC(=O)[C@H](CCC(=O)O)NC(=O)[C@H](CC(=O)O)NC(=O)[C@H](Cc2c[nH]c3ccccc23)NC(=O)[C@H](Cc2c[nH]c3ccccc23)NC(=O)[C@@H](NC(=O)[C@H](CCCNC(=N)N)NC(=O)[C@H](CCSC)NC(=O)[C@@H](NC(C)=O)C(C)C)CSSC[C@@H](C(=O)N[C@@H](CCCNC(=N)N)C(=O)N[C@@H](C)C(=O)N[C@@H](Cc2ccccc2)C(N)=O)NC(=O)[C@H](CC(C)C)NC1=O` [SYN1534] (Ac-VMRCWWDEEMLCRAF-NH2; disulfide 4-12 (inferred)) to `CSCC[C@@H]1NC(=O)[C@H](CCC(=O)O)NC(=O)[C@H](CCC(=O)O)NC(=O)[C@H](CC(=O)O)NC(=O)[C@H](Cc2c[nH]c3ccccc23)NC(=O)[C@H](Cc2c[nH]c3ccccc23)NC(=O)[C@@H](NC(=O)[C@H](CCCCN)NC(=O)[C@H](CCSC)NC(=O)[C@@H](NC(C)=O)C(C)C)CSSC[C@@H](C(=O)N[C@@H](CCC(=O)O)C(=O)N[C@@H](C)C(=O)N[C@@H](Cc2ccccc2)C(N)=O)NC(=O)[C@H](CC(C)C)NC1=O` [SYN1538] (Ac-VMKCWWDEEMLCEAF-NH2; disulfide 4-12 (inferred)), the “Kd Ratio 7.4/6.0” value falls from 125 to 71.

First: CSCC[C@@H]1NC(=O)[C@H](CCC(=O)O)NC(=O)[C@H](CCC(=O)O)NC(=O)[C@H](CC(=O)O)NC(=O)[C@H](Cc2c[nH]c3ccccc23)NC(=O)[C@H](Cc2ccccc2)NC(=O)[C@@H](NC(=O)[C@H](CCCCN)NC(=O)[C@H](CCSC)NC(=O)[C@@H](NC(C)=O)C(C)C)CSSC[C@@H](C(=O)N[C@@H](CCCNC(=N)N)C(=O)N[C@@H](C)C(=O)N[C@@H](Cc2ccccc2)C(N)=O)NC(=O)[C@H](CC(C)C)NC1=O [SYN1535] (Ac-VMKCFWDEEMLCRAF-NH2; disulfide 4-12 (inferred))
Second: CSCC[C@H](NC(=O)[C@@H](NC(C)=O)C(C)C)C(=O)N[C@@H](CCCCN)C(=O)N[C@H]1CSSC[C@@H](C(=O)N[C@@H](CCCNC(=N)N)C(=O)N[C@@H](C)C(=O)N[C@@H](Cc2ccccc2)C(N)=O)NC(=O)[C@H](CC(C)C)NC(=O)[C@H](Cc2ccccc2)NC(=O)[C@H](CCC(=O)O)NC(=O)[C@H](CCC(=O)O)NC(=O)[C@H](CC(=O)O)NC(=O)[C@H](Cc2c[nH]c3ccccc23)NC(=O)[C@H](Cc2c[nH]c3ccccc23)NC1=O [SYN1536] (Ac-VMKCWWDEEFLCRAF-NH2; disulfide 4-12 (inferred))
The “Kd Ratio 7.4/6.0” value of the first is lower: 35 for the first, 61 for the second.

Going from `CSCC[C@@H]1NC(=O)[C@H](CCC(=O)O)NC(=O)[C@H](CCC(=O)O)NC(=O)[C@H](CC(=O)O)NC(=O)[C@H](Cc2c[nH]c3ccccc23)NC(=O)[C@H](Cc2c[nH]c3ccccc23)NC(=O)[C@@H](NC(=O)[C@H](CCCCN)NC(=O)[C@H](CCSC)NC(=O)[C@@H](NC(C)=O)C(C)C)CSSC[C@@H](C(=O)N[C@@H](CCCNC(=N)N)C(=O)N[C@@H](Cc2ccc(O)cc2)C(=O)N[C@@H](Cc2ccccc2)C(N)=O)NC(=O)[C@H](CC(C)C)NC1=O` [SYN1539] (Ac-VMKCWWDEEMLCRYF-NH2; disulfide 4-12 (inferred)) to `CSCC[C@@H]1NC(=O)[C@H](CCC(=O)O)NC(=O)[C@H](CCC(=O)O)NC(=O)[C@H](CC(=O)O)NC(=O)[C@H](Cc2c[nH]c3ccccc23)NC(=O)[C@H](Cc2c[nH]c3ccccc23)NC(=O)[C@@H](NC(=O)[C@H](CCCCN)NC(=O)[C@H](CCSC)NC(=O)[C@@H](NC(C)=O)C(C)C)CSSC[C@@H](C(=O)N[C@@H](CCCNC(=N)N)C(=O)N[C@@H](C)C(=O)N[C@H](C(N)=O)C(C)C)NC(=O)[C@H](CC(C)C)NC1=O` [SYN1540 A] (Ac-VMKCWWDEEMLCRAV-NH2; disulfide 4-12), the “Kd Ratio 7.4/6.0” value falls from 83 to 80.

Same assay, conditions: Table 2; pH 6; immobilized shFcRn; data fit steady state or 2 site; read-out: Kd, pH 6** Biacore

`CSCC[C@H](NC(=O)[C@@H](NC(C)=O)C(C)C)C(=O)N[C@@H](CCCCN)C(=O)N[C@H]1CSSC[C@@H](C(=O)N[C@@H](CCCNC(=N)N)C(=O)N[C@@H](C)C(=O)N[C@@H](Cc2ccccc2)C(N)=O)NC(=O)[C@H](CC(C)C)NC(=O)[C@H](Cc2ccccc2)NC(=O)[C@H](CCC(=O)O)NC(=O)[C@H](CCC(=O)O)NC(=O)[C@H](CC(=O)O)NC(=O)[C@H](Cc2c[nH]c3ccccc23)NC(=O)[C@H](Cc2c[nH]c3ccccc23)NC1=O` [SYN1536] (Ac-VMKCWWDEEFLCRAF-NH2; disulfide 4-12 (inferred)) gave a Kd of 31 nM.

Same assay, conditions: Table 2; pH 7.4; data only 100 uM, therefore Kd may be higher; read-out: Kd, pH 7.4 Biacore

Compared with `CSCC[C@H](NC(=O)[C@@H](NC(C)=O)C(C)C)C(=O)N[C@@H](CCCCN)C(=O)N[C@H]1CSSC[C@@H](C(=O)N[C@@H](CCCNC(=N)N)C(=O)N[C@@H](C)C(=O)N[C@@H](Cc2ccccc2)C(N)=O)NC(=O)[C@H](CC(C)C)NC(=O)[C@H](Cc2ccccc2)NC(=O)[C@H](CCC(=O)O)NC(=O)[C@H](CCC(=O)O)NC(=O)[C@H](CC(=O)O)NC(=O)[C@H](Cc2c[nH]c3ccccc23)NC(=O)[C@H](Cc2c[nH]c3ccccc23)NC1=O` [SYN1536] (Ac-VMKCWWDEEFLCRAF-NH2; disulfide 4-12 (inferred)), `CSCC[C@@H]1NC(=O)[C@H](CCC(=O)O)NC(=O)[C@H](CCC(=O)O)NC(=O)[C@H](CC(=O)O)NC(=O)[C@H](Cc2c[nH]c3ccccc23)NC(=O)[C@H](Cc2c[nH]c3ccccc23)NC(=O)[C@@H](NC(=O)[C@H](CCCCN)NC(=O)[C@H](CCSC)NC(=O)[C@@H](NC(C)=O)C(C)C)CSSC[C@@H](C(=O)N[C@@H](CCCNC(=N)N)C(=O)N[C@@H](Cc2ccc(O)cc2)C(=O)N[C@@H](Cc2ccccc2)C(N)=O)NC(=O)[C@H](CC(C)C)NC1=O` [SYN1539] (Ac-VMKCWWDEEMLCRYF-NH2; disulfide 4-12 (inferred)) is 7.8-fold higher in Kd: 1100 nM for the first, 8600 nM for the second.
